Measured values from ChEMBL document CHEMBL4342451, “α-Glucosidase Inhibitory Isomeric Corniculatolides from the Stems of the Indian Mangrove Plant, Xylocarpus granatum” (J Nat Prod, 2020).
Activity calls are given as the source filed them. The calls are words filed in the database; no cut-off is given here.

Columns and labels:
[1] = Inhibition of Saccharomyces cerevisiae alpha-glucosidase assessed as decrease in release of p-nitrophenol using pNPG as substrate preincubated for 15 min followed by substrate addition and measured after 5 mins by spectrophotometric method
MCF7 = assay: Cytotoxicity against human MCF7 cells assessed as reduction in cell viability at 1 to 100 uM incubated for 24 to 48 hrs by SRB assay; assay type: functional, cell-based
MIA PaCa-2 = assay: Cytotoxicity against human MIAPaCa2 cells assessed as reduction in cell viability at 1 to 100 uM incubated for 24 to 48 hrs by SRB assay; assay type: functional, cell-based
HCT-116 = assay: Cytotoxicity against human HCT116 cells assessed as reduction in cell viability at 1 to 100 uM incubated for 24 to 48 hrs by SRB assay; assay type: functional, cell-based
DU-145 = assay: Cytotoxicity against human DU145 cells assessed as reduction in cell viability at 1 to 100 uM incubated for 24 to 48 hrs by SRB assay; assay type: functional, cell-based

Compound	IC50 [1]	Activity (MCF7)	Activity (MIA PaCa-2)	Activity (HCT-116)	Activity (DU-145)
C[C@H]1O[C@H](O[C@H]2[C@H](O)[C@@H](O)[C@@H](O[C@H]3[C@H](O)[C@@H](O)C(O)O[C@@H]3CO)O[C@@H]2CO)[C@H](O)[C@@H](O)[C@@H]1N[C@H]1C=C(CO)[C@@H](O)[C@H](O)[C@H]1O (stereo partly specified) [ACARBOSE]	12.2 µM				
O=C1CCc2cc(O)c(O)c(c2)Oc2ccc(cc2)CCCO1	24.8 µM	inactive	inactive	inactive	inactive
O=C1CCc2ccc(cc2)Oc2cc(ccc2O)CCCO1 [ISOCORNICULATOLIDE A]	> 200 µM	inactive	inactive	inactive	inactive
COc1ccc2cc1Oc1ccc(cc1)CCCOC(=O)CC2	65.4 µM	inactive	inactive	inactive	inactive
COc1cc2cc(c1OC)Oc1ccc(cc1)CCCOC(=O)CC2	72.3 µM	inactive	inactive	inactive	inactive

Further lines, with some results ahead:

IC50 [1]	Compound	Activity (MCF7)	Activity (MIA PaCa-2)	Activity (HCT-116)	Activity (DU-145)
187 µM	O=C1CCc2ccc(O)c(c2)Oc2ccc(cc2)CCCO1 [CORNICULATOLIDE A]	inactive	inactive	inactive	inactive
134 µM	COc1cc2cc(c1OC)Oc1ccc(cc1)CCC(=O)OCCC2	inactive	inactive	inactive	inactive
> 200 µM	COc1c(O)cc2cc1Oc1ccc(cc1)CCCOC(=O)CC2	inactive	inactive	inactive	inactive
